The target in series [1] is T1, POL/UL8 interaction (Human herpesvirus 1, UniProt P04293).
T1 construct: made in house; host or cells: Spodoptera frugiperda (Sf) cells infected with recombinant baculoviruses AcUL30 and AcUL8
The experiment in a line: biochemical. The format is binding, HSV-1. Particulars: for Inhibition of the POL/UL8 interaction (in words): FIG. 6. From the text: POL/UL8 interaction assays. ELISA assays, similar to that described for POL/UL42 (Marsden et al., 1994) were established with purified POL and UL8 proteins. POL was extracted from Sf cells infected with recombinant baculovirus AcUL30 and purified as described by Gottlieb et al. (1990) with minor modifications (Marsden et al., 1994). UL8 protein was extracted from Sf cells infected with recombinant baculovirus AcUL8 and purified as described by Parry et al., (1993) but substituting phenyl-Sepharose by hydroxylapatite chromatography (Dodson and Lehman, 1991). Both proteins were diluted in PBS to the required concentrations. For the first assay, microtiter wells were coated overnight with 0.02 μg of purified POL and blocked with 100 μl of 2% BSA in PBS for 1 h at 37° C. After blocking, the plates were washed extensively with PBS containing 0.3% Tween 20 and blotted dry. Then 50 μl of purified UL8, at the concentrations indicated in the text, were added to each well and incubated for 1 h at 37° C. […] The wells were again extensively washed and bound MAb was detected with 50 μl/well of HRP-conjugated goat anti-mouse IgG (Sigma) diluted 1:500 in PBS containing 2% FCS and chromogenic substrate ABTS. For the second assay, POL and UL8 proteins were added in the reverse order. Microtitre wells were coated overnight with 0.02 to 0.04 μg of purified UL8 protein and bound POL was detected with a POL-specific MAB 13185 (Marsden et al., 1996) diluted 1:100. Other aspects of the two assays were identical. MAbs, diluted in PBS plus 2% fetal calf serum, and peptides, diluted in 100 mM Tris-HCl (pH 8.0) plus 0.1% Tween 20, were added to the interaction assay as described in the text.
Inhibition of the POL/UL8 interaction by UL8 peptides. […] Peptides were dissolved in 100 mM Tris-HCl (pH 8.0) plus 0.1% Tween 20 at different concentrations and incubated with POL for 15 min to allow the peptides to bind to POL. The mixtures were then added to microtiter wells coated with UL8 and the amount of POL bound was determined after 1 h. […] The concentration of each peptide required to reduce POL binding by 50% (the IC50 value) was determined in at least 3, and on average 5, independent experiments.
The jumbled peptide, 7J, was made by linking residues from alternately the N- and C-termini of peptide 7. Thus, if the order of the 20 residues in peptide 7 is represented as 1, 2, 3, . . . 18, 19, 20, that in 7J was 1, 20, 2, 19, . . . […].
We next investigated whether the preincubation step was necessary.

Series [2] can be described thus: Solubility of peptides in assay buffer. The format is physicochemical. The note with it: 100 mM Tris-HCl (pH 8.0) plus 0.1% Tween 20.
For a further series, the target named is T2, UL54/UL102 interaction (Human cytomegalovirus, UniProt P08546).
T2 construct: made in house; host or cells: Spodoptera frugiperda (Sf) cells infected with recombinant baculoviruses AcUL54 and AcUL102
T2 sequence (P08546 whole entry): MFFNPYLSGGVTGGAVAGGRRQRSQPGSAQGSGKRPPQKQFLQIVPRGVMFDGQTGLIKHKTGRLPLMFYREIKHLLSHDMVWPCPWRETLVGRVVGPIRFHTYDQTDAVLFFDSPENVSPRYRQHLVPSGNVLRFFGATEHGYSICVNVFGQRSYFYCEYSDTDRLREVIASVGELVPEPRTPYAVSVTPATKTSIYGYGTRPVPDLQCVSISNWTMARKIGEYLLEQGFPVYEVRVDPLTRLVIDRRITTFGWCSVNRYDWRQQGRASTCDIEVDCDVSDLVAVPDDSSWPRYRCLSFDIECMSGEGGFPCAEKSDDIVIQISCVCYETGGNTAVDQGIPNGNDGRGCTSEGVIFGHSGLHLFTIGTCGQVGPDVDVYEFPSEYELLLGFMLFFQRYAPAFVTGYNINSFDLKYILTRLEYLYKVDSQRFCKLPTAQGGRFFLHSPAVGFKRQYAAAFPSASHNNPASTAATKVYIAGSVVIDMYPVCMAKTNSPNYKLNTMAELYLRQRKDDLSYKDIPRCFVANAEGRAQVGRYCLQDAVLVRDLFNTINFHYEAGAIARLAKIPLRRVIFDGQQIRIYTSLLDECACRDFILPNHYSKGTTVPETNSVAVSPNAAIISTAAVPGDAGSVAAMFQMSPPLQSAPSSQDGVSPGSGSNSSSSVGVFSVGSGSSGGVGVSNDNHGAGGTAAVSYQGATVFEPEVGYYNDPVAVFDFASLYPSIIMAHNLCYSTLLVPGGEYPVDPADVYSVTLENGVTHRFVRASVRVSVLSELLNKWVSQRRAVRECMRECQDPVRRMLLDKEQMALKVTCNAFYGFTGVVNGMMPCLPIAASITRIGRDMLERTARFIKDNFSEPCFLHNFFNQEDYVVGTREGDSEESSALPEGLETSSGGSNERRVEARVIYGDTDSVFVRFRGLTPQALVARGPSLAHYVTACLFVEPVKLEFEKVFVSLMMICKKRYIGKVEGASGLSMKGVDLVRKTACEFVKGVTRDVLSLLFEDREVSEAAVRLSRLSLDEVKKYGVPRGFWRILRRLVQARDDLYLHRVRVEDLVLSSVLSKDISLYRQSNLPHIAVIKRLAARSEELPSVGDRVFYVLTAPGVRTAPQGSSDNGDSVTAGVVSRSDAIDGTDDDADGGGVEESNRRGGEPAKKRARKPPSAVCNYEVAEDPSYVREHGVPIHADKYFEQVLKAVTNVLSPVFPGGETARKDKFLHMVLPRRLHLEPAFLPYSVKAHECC
Briefly: UL54/UL102 interaction ELISA, inhibition by UL102 peptides. The format is binding, HCMV. On the procedure:
UL54/UL102 interaction assays. ELISA assays, similar to those described for HSV-1 POL/UL8 (see Example 1 above) were established with purified HCMV UL54 and UL102 proteins. […] The wells were again extensively washed and bound antibody was detected with 50 μl/well of HRP-conjugated protein A (Sigma) diluted 1:500 in PBS containing 2% FCS. After further washes, chromogenic substrate ABTS was added.
Inhibition of the UL54/UL102 interaction by UL102 peptides. […] To do this, the peptides listed in Table 4 were tested for their ability to block the interaction of HCMV UL102 with HCMV UL54. […] The amount of UL54 bound was determined after 1 h by measuring the absorbance at 405 nm as described. The absorbance in the absence of any peptide, 1.061±0.033, was determined from six wells. The background absorbance in the absence of any UL54, 0.240±0.025, was also determined from six wells and was subtracted from all values. […] The concentration of each peptide required to reduce UL54-binding by 50% (the IC50 value) was determined and is listed in Table 4.
A general note: In an ELISA, binding on a coated surface is turned into a signal by an enzyme label.

Series [3] has as its target T1, POL/UL8 interaction. The experiment in a line: biochemical. The format is binding, HSV-1. The note with it: IC50 value for inhibition of the POL/UL8 interaction, FIG. 8; no pre-incubation, peptide added a few seconds after POL.
Where [4] appears, read: IC50 value for inhibition of the POL/UL8 interaction, experiment shown in FIG. 7, 15 min pre-incubation with POL.

The values below come from US6337074B1, “Anti-herpesviral agent” (priority 1996, dated 2002).

Where two headings read alike, the source gives them in different places. No end group written: not given here. Where only a bound is given, the exact number is not on record here.

T1 sequence (P04293 whole entry): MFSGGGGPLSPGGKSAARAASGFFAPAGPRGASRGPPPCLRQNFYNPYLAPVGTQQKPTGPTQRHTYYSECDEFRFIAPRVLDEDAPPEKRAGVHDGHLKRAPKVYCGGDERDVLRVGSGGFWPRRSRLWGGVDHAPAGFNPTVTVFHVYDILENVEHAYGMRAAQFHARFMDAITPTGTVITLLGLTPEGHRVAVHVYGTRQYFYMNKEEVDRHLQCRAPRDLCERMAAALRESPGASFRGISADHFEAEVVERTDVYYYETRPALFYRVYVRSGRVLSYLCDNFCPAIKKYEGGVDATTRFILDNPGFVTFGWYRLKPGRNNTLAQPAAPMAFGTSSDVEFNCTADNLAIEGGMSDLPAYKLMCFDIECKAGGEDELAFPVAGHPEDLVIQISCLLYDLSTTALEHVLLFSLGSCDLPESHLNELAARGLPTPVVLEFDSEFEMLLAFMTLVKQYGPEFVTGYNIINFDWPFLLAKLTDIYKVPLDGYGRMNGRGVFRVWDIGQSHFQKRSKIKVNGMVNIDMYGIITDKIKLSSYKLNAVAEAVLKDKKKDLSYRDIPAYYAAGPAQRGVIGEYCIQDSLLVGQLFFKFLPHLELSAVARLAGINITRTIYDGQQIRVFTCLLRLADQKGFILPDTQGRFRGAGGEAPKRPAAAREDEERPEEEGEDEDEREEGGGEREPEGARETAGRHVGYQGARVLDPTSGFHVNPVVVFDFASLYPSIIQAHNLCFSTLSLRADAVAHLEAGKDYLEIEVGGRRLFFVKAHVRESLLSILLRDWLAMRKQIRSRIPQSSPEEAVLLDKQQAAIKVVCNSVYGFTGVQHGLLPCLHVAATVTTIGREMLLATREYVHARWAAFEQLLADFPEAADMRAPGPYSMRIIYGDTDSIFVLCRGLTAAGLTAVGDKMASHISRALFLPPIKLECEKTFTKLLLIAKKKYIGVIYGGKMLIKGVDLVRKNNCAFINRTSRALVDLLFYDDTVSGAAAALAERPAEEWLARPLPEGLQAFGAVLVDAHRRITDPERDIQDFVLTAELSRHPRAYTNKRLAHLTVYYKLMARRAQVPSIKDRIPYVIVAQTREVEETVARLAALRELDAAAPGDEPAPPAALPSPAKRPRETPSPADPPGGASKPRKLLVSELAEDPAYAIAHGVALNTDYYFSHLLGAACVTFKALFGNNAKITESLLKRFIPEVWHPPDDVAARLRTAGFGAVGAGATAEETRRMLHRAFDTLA

Broadly, the IC50 is the concentration that inhibits the measured activity by half. A lower IC50 goes with higher potency. In turn, TGVLAGVWGEGGKFV [Peptide 6] gave a concentration for half-maximal inhibition (IC50) on POL/UL8 interaction [1] of over 250 µM.

For “VFTGVLAGVWGEGGKFVYPFDDKMSFLFA [Peptide 5]”, at POL/UL8 interaction [1], the midpoint of inhibition, the IC50, lay at 66 ± 22 µM and the “Inhibition of the POL/UL8 interaction (in words)” value is “markedly inhibitory”. Also, the “Solubility (in words)” value in series [2] is recorded as “limited solubility”.

On POL/UL8 interaction [1], TGVLAGVWGEGGKFVYPFDDKMSFLFA [Peptide 4] registered a concentration for half-maximal inhibition (IC50) of over 250 µM.

For `CC[C@H](C)[C@H](NC(=O)[C@@H]1CCCN1C(=O)[C@H](CCC(=O)O)NC(=O)[C@H](CCCCN)NC(=O)[C@H](CCC(=O)O)NC(=O)[C@H](CC(C)C)NC(=O)[C@H](CCC(N)=O)NC(=O)[C@H](Cc1ccc(O)cc1)NC(=O)[C@H](Cc1c[nH]c2ccccc12)NC(=O)[C@H](CC(C)C)NC(=O)[C@H](CCCCN)NC(=O)[C@@H](N)C(C)C)C(=O)N[C@H](C(=O)NCC(=O)N[C@@H](C)C(=O)O)C(C)C` [Peptide RT85, reference compound], the 50% inhibitory concentration (IC50) on POL/UL8 interaction [1] was over 250 µM; against UL54/UL102 interaction it was over 200 µM.

On to “IVEFLKVGFGTEGGVWLVAG [Peptide 7J, reference compound]”, for which the IC50 at POL/UL8 interaction [1] and at POL/UL8 interaction [1] (setting [4]) was over 20 µM in each case.

On to IELVFTGVLAGVWGEGGKFV [Peptide 7], for which the concentration for half-maximal inhibition (IC50) against POL/UL8 interaction [1] is 2.3 ± 2.2 µM; against POL/UL8 interaction [1] (IC50 value for inhibition of the POL/UL8 interaction, FIG. 8, peptide pre-incubated with POL for 15 min), about 1 µM; at POL/UL8 interaction [1] (setting [4]), about 1 µM; against POL/UL8 interaction [3] it was about 1 µM. For the same compound, the “Inhibition of the POL/UL8 interaction (in words)” value at POL/UL8 interaction [1] is on record as “markedly inhibitory”. Also, in series [2], the “Solubility (in words)” value is given as “limited solubility”.

On to EILREIELVFTGVLA [Peptide 8], for which, at POL/UL8 interaction [1], the IC50 was over 250 µM.

At POL/UL8 interaction [1], VLAGVWGEGGKFVYPFDDKMSFLFA [Peptide 3] came in with an IC50 of over 250 µM.
